Legend:
[1] = Safety and tolerability of repeated doses 5-30 mg (Example 2); assay type: in vivo, human
Source text: Safety and tolerability of VB-201 was judged by evaluating the incidence of abnormal findings in the following measurements: vital signs: systolic and diastolic blood pressure, heart rate, respiratory rate, body temperature; physical examination; 12-lead electrocardiogram; laboratory tests of blood samples for: complete blood count, prothrombin time/partial thromboplastin time, LDL- and HDL-cholesterol, total cholesterol, triglycerides, glucose, blood urea nitrogen, sodium, potassium, creatinine, calcium, phosphorus, creatinine phosphokinase, lactate dehydrogenase, aspartate transaminase, alanine transaminase, γ-glutamyl transferase, alkaline phosphatase, protein, albumin, total bilirubin, total IgM and IgG antibodies, interleukin-12/23 p40, tumor necrosis factor-α, and interleukin-6, as well as routine urinalysis; and all adverse events, whether or not considered serious, and whether or not considered related to the investigational agent, according to the criteria for Good Clinical Practice. Treatment-emergent adverse events were defined as any adverse event that started on or after administration of the first dose of VB-201, and no more than 30 days after administration of the last dose, or are ongoing at the time of the first dose and worsened in severity or frequency during treatment. […] The subjects were all healthy volunteers. […] 10 subjects received a placebo. […]

interleukin-23 (IL-23) = assay: Plasma cytokine assay, IL-23 (Example 5); assay type: in vivo, human
Method: Acquisition of samples was performed using FacsCalibur (Becton Dickinson).

[2] = Pharmacokinetics of VB-201 in human subjects, summary over the studies; assay type: in vivo
Method: Determination of VB-201 concentrations in plasma was performed using an HPLC-MS/MS (high performance liquid chromatography with tandem mass spectrometric detection) assay. Calibration was for a range of from 5 to 500 ng/ml for low doses and from 50 to 5000 ng/ml for high doses. Pharmacokinetic parameters were estimated by using a non-compartmental method, except for the AUC (area under curve), which was determined using a (log-) trapezoidal rule as the area above the previous trough level. All calculations were made using PKWizard (developed by Russell Barbare and Dr. […] was validated against WinNonlin (Pharsight Corp.), which is an FDA-recognized validated program. Pharmacokinetic parameters were calculated by the program according to standard methods used in the art. Calculation of the pharmacokinetic characteristics was based on the actual blood sampling time (in hours), with predose times set to zero. Concentrations below the LLOQ (lower limit of quantification; 4.974 ng/ml) were assumed to be zero.

CCCCCCCCCCCCCCCCOCC(COP(=O)([O-])OCC[N+](C)(C)C)OCCCCC(=O)O (stereo not drawn) [VB-201, 1-hexadecyl-2-(4′-carboxybutyl)-glycerol-3-phosphocholine]
serious or severe adverse events ([1]; daily 5-30 mg, 14 days): No serious or severe adverse events occurred | safety and tolerability ([1]; orally for 14 days at daily doses 5 mg to 30 mg): as safe and tolerable as placebo | IL-23 plasma levels (interleukin-23 (IL-23); 40 mg per day, 14 days, both subjects with detectable pre-dose IL-23): considerably reduced | IL-23 plasma levels (interleukin-23 (IL-23); 80 mg per day, 28 days, all three subjects): considerably reduced | time of peak plasma concentrations after administration ([2]; oral, over the studies): 6 to 11 h | minimum concentration during a 24-hour period relative to maximum concentration ([2]; regular once-daily administration (FIGS. 2 and 4)): at least 66.7%
